For one data set, the system named is MDA-MB-231 cells. Briefly: CyQUANT cell viability assay, 48-hour exposure. It counts as cell-based, human. Here is the method: After drug treatments, fluorescence readings from 96-well plates were obtained using the CyQUANT dye and compared to standard curves for each cell line to determine cell viability. […] Trypan blue exclusion was used to estimate cell numbers in a few pilot experiments and was thereafter applied to confirm cell death.
A series of experiments was conducted to assess the relative efficacy of 4SP65, 1LP65, and amifostine as single agents in the same human cancer cell lines. First, the effectiveness of 4SP65 was tested against 15 cancer cell lines derived from seven tissues. […] The effectiveness of 0 to ≤500 μM amifostine was tested in sets of cancer cell lines reported to have either medium, high, or no expression of alkaline phosphatase.
Trans. R Soc. Lond. […] Using cell numbers based on fluorescence measurements and standard curves [time zero, (Tz), control growth, (C), and test growth in the presence of drug at five or more concentration levels (Ti)], the percentage growth was calculated at each drug concentration level. The percentage of growth inhibition was calculated as follows:
The LC50/99 was calculated using Equation 2=−50 and Eq. 2=−99, respectively. […] For NHMECs, the relationships between drug exposure levels and fluorescence units were used to define dose-response metrics. The selectivity index (SI) values for individual drug treatments were calculated as IC50 levels in NHMECs divided by the IC50 values in cancer cell lines.

The next data set deals with Vero cells. The data set is described as follows: Dose-response metrics in immortalized, non-tumorigenic cells. The data set is classed as cell-based. The method, then:
To determine potential cytostatic or cytocidal effects of BRG prodrugs in immortalized, non-tumorigenic cells, Vero, HEK-293t, LP9, and HPM3 cells were exposed to 4SP65 while only Vero cells also were treated with 1LP65. […] Comparisons across other dose-response metrics could not be made because such levels of effects were not induced in NHMECs exposed to 4SP65. […] Since cytostatic and cytolytic effects at the TGI and LC50/99 levels were induced in Vero cells exposed to 1LP65 but not in NHMECs, there is a significant difference in the effects of 1LP65 in Vero cells compared to NHMECs, but p values based upon t-test evaluations cannot be defined due to lack of numerical data.

The subject of data set [1] is normal human mammary epithelial cells (NHMECs). The data set is described as follows: Growth of NHMEC strains after 48-hour exposure. It counts as cell-based. The note with it: for average effect per unit dose (% growth÷exposure concentration) / average effect per unit dose: NHMECs; for growth relative to control cells: 48-hour; for cell growth as % of control cell values: highest drug level 500 μM. From the text: Normal human mammary epithelial cell (NHMEC) strains used to assess potential cytotoxicity of 4SP65/1LP65 were established from reduction mammoplasty tissue from a healthy donor (#M99005 or ‘Strain-1’) (Keshava et al., “Induction of CYP1A1 and CYP1B1 and Formation of Carcinogen-DNA Adducts in Normal Human Mammary Epithelial Cells Treated with Benzo[a]pyrene,” Cancer Lett. 221 (2): 213-24 (2005), which is hereby incorporated by reference in its entirety) or purchased from ATCC (Manassas, VA, USA; batch #70043304 or ‘Strain-2’) or Cell Applications (San Diego, CA, USA; lot #1669 or ‘Strain-3’). Human cancer cell lines including HCC38 (Cat #CRL2314™), MDA-MB-231 (Cat #HTB-26™), A549/ATCC (Cat #CL-185™), National Cancer Institute (NCI)-H460 (Cat #HTB177™), NCI-H1437 (Cat #CRL-5872™), NCI-H1975 (Cat #CRL-5908™), DU145 (Cat #HTB-81™), LNCaP (Cat #CRL-1740™), PC3 (Cat #CRL-1435™), PANC1 (Cat #CRL-1469™), SKOV3 (Cat #HTB-75™), and HL60 (Cat #CCL-240™), which were free of mycoplasma, were purchased from ATCC. HMESO1 (CLS Cell Lines Service GmbH, Cat #BHC11100791), PPMMill, and TOV21G cells (ATTC Cat #CRL-11730), obtained from Dr. Brian Cunniff, were verified to be Mycoplasma negative using the LookOutR Mycoplasma PCR Detection Kit (Sigma-Aldrich, Cat #MP0035) and to match previously annotated DNA fingerprints by the Vermont Integrative Genomics Resource DNA Analysis Facility.
To assess the effects of 4SP65 on the growth of normal epithelium, experiments were performed using NHMEC strains from three donors (Keshava et al., “Induction of CYP1A1 and CYP1B1 and Formation of Carcinogen-DNA Adducts in Normal Human Mammary Epithelial Cells Treated with Benzo[a]pyrene,” Cancer Lett. 221 (2): 213-24 (2005), which is hereby incorporated by reference in its entirety). Strain-1 NHMECs were plated at 5,000 cells/well in 24-well dishes and allowed to reach 50% confluence before treatment with 0-300 μM 4SP65 for 48 hours. Cell viability was determined using a hemocytometer and trypan blue exclusion assay. Two other NHMEC strains, exposed to 0-150 μM 4SP65 or 0-500 μM 1LP65, were handled in the same fashion except that viability of cells in 96-well plates was determined using CyQUANT dye.

Like-named read-outs stand apart in the source and are kept apart here. Bounds are passed on as bounds.

This note sets out measurements from US20250144050A1, “AMINOTHIOL-CONJUGATES, COMPOSITIONS, AND METHODS OF USE THEREOF” (THE BURLINGTON HC RESEARCH GROUP, INC., priority 2021, published 2025).

The term CC50 denotes the concentration giving 50% cytotoxicity. What is called GI50 is the concentration giving 50% growth inhibition. For orientation: TGI means the concentration giving total growth inhibition. A low value points to more potent growth arrest. In general, IC50 refers to the concentration needed to halve the response being measured.

Regarding 4-star PEG-S-S-WR1065 [4SP65], the selectivity index in the data set with MDA-MB-231 cells (IC50 of 76 in most sensitive NHMEC strain / IC50 in MDA-MB-231) is on record as above 16. In the data set with Vero cells, this compound yielded a CC50 of 11.6 ± 6.3 µM. Also, the GI50 with Vero cells (VERO) was 2.9 ± 1.4 µM; in data set [1] (Strain-1 and Strain-2 of NHMECs), “could not be calculated or predicted”; in data set [1] (strain 3 of NHMECs, read-out: GI50), 41.4 ± 6.2 µM. The compound also gave an LC99 in the data set on Vero cells (VERO) of 14.0 ± 9.9 µM. For the same compound, the TGI in the data set on Vero cells (VERO) was determined as 6.4 ± 2.6 µM. Moreover, the “average effect per unit dose (% growth÷exposure concentration)” value stood at 8.7 in data set [1] (9 μM), 1.70 in data set [1] (30 μM), 0.23 in data set [1] (90 μM) and 0.058 in data set [1] (150 μM). Also, the “growth compared to sham-exposed control cells” value in data set [1] (Strain-1, 5 μM, 48 hours) is on record as 336%; in data set [1] (Strain-1, 15 μM, 48 hours) it was 286%. Besides, in data set [1] (Strain-1, 50 μM, 48 hours), the “growth as % of control cell growth” value was 68%. The growth pattern entry in data set [1] (Strain-1, 150 μM, 48 hours) was “re-established a predominant pattern of growth enhancement”. In addition, the 50% inhibitory concentration (IC50) entry was “could not be calculated or predicted” in data set [1] (Strain-1 and Strain-2 NHMECs); 76 ± 14 µM in data set [1] (Strain-3 cells, 48 hours, read-out: IC50). Moreover, the “growth relative to control cells” value in data set [1] (Strain-2 and Strain-3, 3 μM) is 162%±7%; in data set [1] (Strain-2 and Strain-3, 9 μM), 78%±12%; in data set [1] (Strain-2 and Strain-3, 30 μM), 52%±8%; in data set [1] (Strain-2 and Strain-3, 50 μM (so in the source)), 21%±4%; in data set [1] (Strain-2 and Strain-3, 150 μM), 8.7%±2%.
For the compound `COCCOCCOCCOCCOCCOCCSSCCNCCCN` [1LP65, m-PEG6-S-S-WR1065], the concentration for 50% growth inhibition (GI50) amounted to 41.8 µM in the data set on MDA-MB-231 cells (Homo sapiens, MDA-MB-231 cells, 48 hours) and 46.6 ± 2.6 µM with Vero cells (Chlorocebus sabaeus, Vero). Moreover, in the data set with Vero cells (VERO), the LC99 turned out to be 183.4 ± 6.2 µM. Besides, the TGI in the data set with Vero cells (VERO) came out at 82.8 ± 2.9 µM. In addition, the “cytotoxicity in NHMECs” value in data set [1] (500 μM) is on record as “not cytotoxic”. Besides, the IC50 in data set [1] (Homo sapiens, Epithelial cell, 48 h, Strain-2 cells, 48 hours, read-out: IC50) was above 500 µM; in data set [1] (Homo sapiens, Epithelial cell, 48 h, Strain-3 cells, 48 hours, read-out: IC50), 210 µM; in data set [1] (Homo sapiens, Epithelial cell, Strain-2 and Strain-3, read-out: IC50, averaging over strains), above 355 µM. Moreover, the “average effect per unit dose (% growth÷exposure concentration)” value in data set [1] (90 μM) is on record as 2.9; in data set [1] (150 μM), 0.31. The “average effect per unit dose” value was 0.06 in data set [1] (300 μM) and 0.03 in data set [1] (500 μM). In addition, the “cell growth as % of control cell values” in data set [1] (Strain-2, 48 hours) is 19.5%; in data set [1] (Strain-3, 48 hours), 12.5%.
